Like-named read-outs stand apart in the source and are kept apart here.
Legend:
[1] = tested on: IL-4 stimulated expression of CD23 in human Ramos B cells (JAK-1 and JAK-3); test: Assay for Ramos B-Cell Line Stimulated with IL-4 (CD23 upregulation, FACS); format: cell-based; details: read-out: IC50, Example 41
Procedure, shortened: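 Read-out: anti-CD23-PE flow cytometry on Ramos B cells, giving IC50. Cells (5×10^4 per point, RPMI + 5% serum) get compound or DMSO for 1 h at 37 °C, then IL-4 50 units/mL final for 20-24 h.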

[2] = tested on: up-regulation of ICAM-1 (CD54) by IFNγ in U937 human monocytic cells; test: U937 IFNγ ICAM1 FACS Assay; format: cell-based; details: U937 cells stimulated with IFNγ; ICAM-1 expression by FACS; read-out: IC50, Example 44
Procedure, shortened: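 Readout was the geometric-mean APC anti-ICAM-1 signal by FACS on live U937 monocytic cells, with % live cells also recorded. Cells were exposed to compounds (8 points, 3-fold dilutions, duplicates) for 30 min at 37 °C before 18–24 h of IFNγ stimulation. EC50 values were computed from the dose curve.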

[3] = Ramos B-cell line stimulated with IL-4, CD23 expression by FACS
[4] = Ramos B cells stimulated with IL-4, CD23 expression by FACS

Compound: Cc1ccc(Nc2ncc(F)c(Nc3ccc(OC(C)C(N)=O)cc3)n2)cc1S(N)(=O)=O (stereo not shown) [Compound I-118, N4-[4-(1-Aminocarbonyl)ethoxy]phenyl-N2-(3-aminosulfonyl-4-methyl)phenyl-5-fluoro-2,4-pyrimidinediamine]
- IC50 [1, 3]: 292 nM
- IC50 [2]: 2430 nM

Compound: N2-(3-Aminosulphonylphenyl)-5-fluoro-N4-[4-(3-pyridinylmethyl)benzo[1,4]oxazin-7-yl]-2,4-pyrimidinediamine [VII-56]
- IC50 [1, 4]: 185 nM
- IC50 [2]: 1930 nM

Compound: CC(Oc1ccc(Nc2nc(Nc3cccc(S(N)(=O)=O)c3)ncc2F)cc1)C(N)=O (racemic) [Compound I-117, Racemic N4-[4-(1-Aminocarbonyl)ethoxy]phenyl-N2-(3-aminosulfonyl)phenyl-5-fluoro-2,4-pyrimidinediamine]
- IC50 [1, 3]: 353 nM
- IC50 [2]: 14600 nM

Compound: CNC(=O)N1CCc2ccc(Nc3nc(Nc4ccc(C)c(S(N)(=O)=O)c4)ncc3F)cc2C1 [VII-17, N2-(3-Aminosulfonyl-4-methylphenyl)-5-fluoro-N4-[2-(methylaminocarbonyl)-1,2,3,4-tetrahydroisoquin-7-yl]-2,4-pyrimidinediamine]
- IC50 [1, 4]: 353 nM
- IC50 [2]: 6960 nM

Compound: Cc1ccc(Nc2ncc(F)c(Nc3ccc(OC(C)(C)C(N)=O)cc3)n2)cc1S(N)(=O)=O [Compound I-127, N4-[4-(1-Aminocarbonyl-1-methyl)ethoxy]phenyl-N2-(3-aminosulfonyl-4-methyl)phenyl-5-fluoro-2,4-pyrimidinediamine]
- IC50 [1, 3]: 233 nM
- IC50 [2]: 2510 nM

Compound: CNS(=O)(=O)c1cc(Nc2ncc(F)c(Nc3ccc4c(c3)CCN4S(C)(=O)=O)n2)ccc1C [VII-62, 5-Fluoro-N2-[3-(N-methylaminosulfony)-4-methylphenyl]-N4-[4-(1-methylsulfonyl)indolin-5-yl]-2,4-pyrimidinediamine]
- IC50 [1, 4]: 104 nM
- IC50 [2]: 496 nM

Compound: Cc1cc(Nc2nc(Nc3ccc(C)c(S(N)(=O)=O)c3)ncc2F)ccc1OC(C)C(N)=O (racemic) [Compound I-121, Racemic N4-[4-(1-Aminocarbonyl)ethoxy-3-methyl]phenyl-N2-(3-aminosulfonyl-4-methyl)phenyl-5-fluoro-2,4-pyrimidinediamine]
- IC50 [1, 3]: 184 nM
- IC50 [2]: 2990 nM

Compound: CCN(CC)CCNS(=O)(=O)c1ccc(Nc2ncc(F)c(Nc3ccc(OCc4ccccn4)cc3)n2)cc1 [Compound I-165, N2-[4-(2-N,N-Diethylaminoethyl)aminosulfonylphenyl)-5-fluoro-N4-[4-(2-pyridinyl)methyleneoxyphenyl]-2,4-pyrimidinediamine]
- IC50 [1, 3]: 245 nM
- IC50 [2]: 1640 nM

Compound: Cc1ccc(Nc2ncc(F)c(Nc3cc(C)c(OCC(N)=O)c(C)c3)n2)cc1S(N)(=O)=O [Compound I-96, N4-(4-Aminocarbonylmethoxy-3,5-dimethyl)phenyl-N2-(3-aminosulfonyl-4-methyl)phenyl-5-fluoro-2,4-pyrimidinediamine]
- IC50 [1, 3]: 132 nM
- IC50 [2]: 3300 nM

Compound: NS(=O)(=O)c1cccc(Nc2ncc(F)c(Nc3ccc(SCc4cccnc4)cc3)n2)c1 [Compound I-192, N2-(3-Aminosulfonylphenyl)-5-fluoro-N4-[4-(3-pyridinyl)-methylenethiophenyl]-2,4-pyrimidinediamine]
- IC50 [1, 3]: 137 nM
- IC50 [2]: 978 nM

Compound: CNC(=O)N1CCCc2cc(Nc3nc(Nc4ccc(C)c(S(N)(=O)=O)c4)ncc3F)ccc21 [VII-19, N2-(3-Aminosulfonyl-4-methylphenyl)-5-fluoro-N4-[1-(methylaminocarbonyl)-1,2,3,4-tetrahydroquin-6-yl]-2,4-pyrimidinediamine]
- IC50 [1, 4]: 87.5 nM
- IC50 [2]: 1260 nM

Compound: Cc1ccc(Nc2ncc(F)c(Nc3ccc(OCc4ccccn4)cc3)n2)cc1S(N)(=O)=O [Compound I-160, N2-(3-Aminosulfonyl-4-methylphenyl)-5-fluoro-N4-[4-(2-pyridinyl)methyleneoxyphenyl]-2,4-pyrimidinediamine]
- IC50 [1, 3]: 130 nM
- IC50 [2]: 923 nM

Compound: CNS(=O)(=O)c1cc(Nc2ncc(F)c(Nc3ccc(OCc4cccnc4)cc3)n2)ccc1C [Compound I-190, 5-Fluoro-N2-[3-(N-methylaminosulfony)-4-methylphenyl]-5-fluoro-N4-[4-(3-pyridinyl)methyleneoxyphenyl]-2,4-pyrimidinediamine]
- IC50 [1, 3]: 145 nM
- IC50 [2]: 1500 nM

Compound: NS(=O)(=O)c1cccc(Nc2ncc(F)c(Nc3ccc(OCc4cccnc4)cc3)n2)c1 [Compound I-188, N2-(3-Aminosulfonylphenyl)-5-fluoro-N4-[4-(3-pyridinyl)methyleneoxyphenyl]-2,4-pyrimidinediamine]
- IC50 [1, 3]: 42.7 nM
- IC50 [2]: 500 nM

Compound: N#CCn1ccc2cc(Nc3nc(Nc4cccc(S(N)(=O)=O)c4)ncc3F)ccc21 [IX-5, N2-(3-Aminosulfonylphenyl)-N4-(1-cyanomethyleneindol-5-yl)-5-fluoro-2,4-pyrimidinediamine]
- IC50 [1, 4]: 29.6 nM
- IC50 [2]: 1850 nM

Compound: CN(C)C(=O)C1Cc2cc(Nc3nc(Nc4ccc(Cl)c(S(N)(=O)=O)c4)ncc3F)ccc2O1 (racemic) [VII-27, Racemic N2-(3-Aminosulfonyl-4-chlorophenyl)-N4-[2-(N,N-dimethylaminocarbonyl)-2,3-dihydrobenzofuran-5-yl]-5-fluoro-2,4-pyrimidinediamine]
- IC50 [1, 4]: 413 nM
- IC50 [2]: 6250 nM

Compound: Cc1ccc(Nc2ncc(F)c(Nc3ccc4c(c3)c(CC#N)cn4C)n2)cc1S(N)(=O)=O [IX-20]
- IC50 [1, 4]: 122 nM
- IC50 [2]: 2900 nM

Compound: CN1CCN(c2ccc(Nc3ncc(F)c(Nc4ccc(OCC#N)cc4)n3)cc2S(N)(=O)=O)CC1 [Compound I-9, N2-[3-Aminosulfonyl-4-(4-methylpiperazin-1-yl)phenyl]-5-fluoro-N4-(4-cyanomethyleneoxyphenyl)-2,4-pyrimidinediamine]
- IC50 [1, 3]: 233 nM
- IC50 [2]: 787 nM

Compound: Cc1ccc(Nc2ncc(F)c(Nc3ccc4c(c3)CN(C(=O)N(C)C)CC4)n2)cc1S(N)(=O)=O [VII-18, N2-(3-Aminosulfonyl-4-methylphenyl)-5-fluoro-N4-[2-(dimethylaminocarbonyl)-1,2,3,4-tetrahydroisoquin-7-yl]-2,4-pyrimidinediamine]
- IC50 [1, 4]: 227 nM
- IC50 [2]: 1290 nM

Compound: Cc1ccc(Nc2ncc(F)c(Nc3ccc4c(c3)CNCC4)n2)cc1S(N)(=O)=O [VII-16, N2-(3-Aminosulfonyl-4-methylphenyl)-5-fluoro-N4-(1,2,3,4-tetrahydroisoquin-7-yl)-2,4-pyrimidinediamine]
- IC50 [1, 4]: 275 nM
- IC50 [2]: 24400 nM
